{"source": "patent EP4782431A1", "about": "(Suzhou Merna Therapeutics Co. Ltd, priority 2023, dated 2025)", "key": {"[1]": {"tested_on": "chemotherapeutic drug-induced mouse model with hand-foot syndrome", "assay": "chemotherapeutic drug-induced mouse model with hand-foot syndrome", "format": "in vivo, ICR mice", "settings": "for infiltration of inflammatory cells / thickening of the epidermal layer and the stratum corneum in the skin tissues / swelling of the toes caused by the modeling drugs: capecitabine and docetaxel models; for infiltration of inflammatory cells / thickening of the epidermal layer and the stratum corneum in the skin tissues / expression level of cytokine IL-8 in the skin tissues of the hind limb toes of the mice / expression level of cytokine IL-6 in the skin tissues of the hind limb toes of the mice: 3% ointment topical or nicotinamide 100 mg/kg oral; for swelling of the toes caused by the modeling drugs: compound of formula (I) 3% ointment topical or nicotinamide 100 mg/kg oral, once daily 16 days; for expression level of cytokine IL-8 in the skin tissues of the hind limb toes of the mice: capecitabine model; for expression level of cytokine IL-6 in the skin tissues of the hind limb toes of the mice: docetaxel model", "source_text": "After adaptive feeding for 7 days, SPF-grade ICR mice (male, 5-6 weeks old, with a body weight of approximately 35 g) were randomly divided into groups, including a blank control group (6 mice), a capecitabine modeling group (6 mice), a docetaxel modeling group (6 mice), a capecitabine + compound of formula (I) group (6 mice), a docetaxel + compound of formula (I) group (6 mice), a capecitabine + nicotinamide group (6 mice), and a docetaxel + nicotinamide group (6 mice). The groups were respectively administered corresponding modeling drugs by oral gavage (capecitabine at 200 mg/kg and docetaxel at 25 mg/kg) once daily; and the blank control group was administered an equivalent volume of normal saline. After administration with the chemotherapeutic drugs for 2 weeks, the ointments containing the compound of formula (I) (at a compound content of 3%) used in Example 10 were respectively applied topically in the groups, or nicotinamide was orally administered (100 mg/kg) once daily continuously for 16 days.\nMeasurement of the degree of swelling of toes: The degree of swelling of hind limb toes of the mice was measured using a toe swelling tester (KW-7C, Nanjing Calvin Biotechnology Co., Ltd.) before administration with the modeling drugs, after administration with the modeling drugs for 2 weeks, and before sacrifice, respectively. Before measurement, ankle joints of hind feet of the mice were marked at same positions before administration, after administration for 2 weeks, and before sacrifice. During measurement, water was properly located at the same level as the marked positions, and numerical values were recorded after becoming stable.\nPathological staining of skin tissues: Skin tissue samples were selected from hind limb toes of the mice and placed in 4% paraformaldehyde for fixation at room temperature for 4 hours. Then, the tissues were taken out and rinsed with running water for several hours. The samples were subjected to dehydration treatment with 70%, 80%, and 90% ethanol solutions, followed by treatment with a mixed solution of equal amounts of absolute alcohol and xylene for 15 minutes, and then permeabilized twice with a xylene solution for 15 minutes each time until the samples became transparent. The samples were placed in a mixture of half xylene and half paraffin for soaking for 15 minutes, and then, paraffin I and paraffin II were added for wax penetration for one hour, respectively. After embedding with paraffin, the samples were sectioned, baked, dewaxed, and hydrated. Then, the hydrated sections were placed in a hematoxylin solution (ZSGB-BIO, article No. 23041001) for staining for 3 minutes, and a differentiation solution of hydrochloric acid in ethanol was added for differentiation for 15 seconds. After rinsing with water, a Scott bluing solution (Servicebio, article No. 20230801) was added for bluing for 15 seconds. After rinsing with running water, the sections were stained with an eosin solution (Solarbio, article No. 33535) for 3 minutes, rinsed with running water, dehydrated, permeabilized, sealed, and inspected under a microscope.\nImmunohistochemical staining: After baking, dewaxing, and hydration, paraffin sections of skin tissues of hind limb toes of the mice were subjected to antigen retrieval using a 0.2 M citric acid buffer solution (containing 1.534 g of citric acid, 3.1 g of sodium citrate, and 100 mL of distilled water, pH 4.7). Endogenous […] was removed using 3% hydrogen peroxide (Shandong Annjet High-Tech Disinfection Technology Co., Ltd., article No. 20290902), and the sections were incubated at room temperature for 10 minutes and then fully rinsed with a PBS buffer solution (containing 8 g of NaCl, 0.2 g of KCl, 1.44 g of Na2HPO4, and 1 M HCl, pH 7.4). The sections were permeabilized with 0.5% Triton-X-100 (AmyJet Scientific, article No. A-CSH436-100 mL), respectively permeabilized with mouse anti-IL-1β and rabbit IL-8 for 10 minutes, and not permeabilized with rabbit anti-IL-6. […]"}, "[2]": {"tested_on": "keratinocyte differentiation markers KRT1, KRT10, Loricrin, and Involucrin", "assay": "inhibition of HBEGF-induced differentiation of HaCaT keratinocytes (RT-PCR)", "format": "cell-based", "settings": "with 2.5 ng/mL recombinant human HBEGF protein, 24 hours", "description": "Human HaCaT keratinocytes were cultured in DMEM culture medium containing 10% fetal bovine serum, 100 U/mL penicillin, and 100 µg/mL streptomycin. The cells were seeded into a 96-well plate at a density of […] and placed in an incubator containing 5% carbon dioxide for culture at 37°C for 24 hours. An equal volume of DMSO was added into control well 1, a 2.5 ng/mL recombinant human HBEGF protein (Abcam, ab205523) was added into control well 2, and a 2.5 ng/mL recombinant human HBEGF protein and corresponding concentrations of test compounds were added into sample wells. The cells were continuously cultured for 24 hours, washed with PBS, and then collected by high-speed centrifugation. Total RNA was extracted using Trizol reagent (Sigma Aldrich). 1 µg of RNA was reverse-transcribed into cDNA using a cDNA reverse transcription kit (Transgene Biotech, AT311-03). 1.25 µL of a primer (with a primer sequence shown in Table 2), 10 µL of an iTag Universal SYBR Green supermix (Bio-Rad, 172-5125), and an appropriate amount of DEPC ultrapure water were added to formulate 20 µL of a reaction solution to perform an RT-PCR reaction. Upon completion of the reaction, the reaction solution was subjected to agarose gel electrophoresis to determine the mRNA expression level of keratinocyte differentiation markers KRT1, KRT10, Loricrin, and Involucrin. […]"}}}
{"smiles": "NC(=O)c1cccnc1", "note": "[Nicotinamide, nicotinamide]", "values": [{"measurement": "infiltration of inflammatory cells", "setting": "[1]", "value": "infiltration of inflammatory cells still observed"}, {"measurement": "thickening of the epidermal layer and the stratum corneum in the skin tissues", "setting": "[1]", "value": "mildly alleviated"}, {"measurement": "swelling of the toes caused by the modeling drugs", "setting": "[1]", "value": "not observed that oral administration of nicotinamide at 100 mg/kg significantly alleviated the swelling"}, {"measurement": "expression level of cytokine IL-8 in the skin tissues of the hind limb toes of the mice", "setting": "[1]", "value": "didn't have a significant impact"}, {"measurement": "expression level of cytokine IL-6 in the skin tissues of the hind limb toes of the mice", "setting": "[1]", "value": "didn't have a significant impact"}]}
{"smiles": "NC(=O)[C@H]1CCCc2c1[nH]c1ccc(Cl)cc21", "note": "[Compound of formula (I), (S)-6-chloro-2,3,4,9-tetrahydro-1H-carbazole-carboxamide]", "values": [{"measurement": "infiltration of inflammatory cells", "setting": "[1]", "value": "no infiltration of inflammatory cells observed"}, {"measurement": "thickening of the epidermal layer and the stratum corneum in the skin tissues", "setting": "[1]", "value": "effectively alleviate"}, {"measurement": "swelling of the toes caused by the modeling drugs", "setting": "[1]", "value": "significantly alleviate"}, {"measurement": "expression level of cytokine IL-8 in the skin tissues of the hind limb toes of the mice", "setting": "[1]", "value": "significantly decrease"}, {"measurement": "expression level of cytokine IL-6 in the skin tissues of the hind limb toes of the mice", "setting": "[1]", "value": "significantly decrease"}, {"measurement": "mRNA expression level of the HaCaT differentiation markers KRT1, KRT10, Loricrin, and Involucrin", "setting": "[2]", "value": "significantly inhibited"}]}
